According to US4113736A, “2-Phenyl-indole derivatives” (priority 1975, dated 1978):
Where two headings read alike, the source gives them in different places.

Legend:
[1] = Acute toxicity (LD50 / LDO), oral route, mice; type: in vivo; settings: mouse, in vivo
Procedure: (§1) The toxicity of the stabilizers of the invention was studied first and the satisfactory results obtained were such as to justify continuation of the investigation.
(§2) The acute toxicity (LD50) of the stabilizers listed below was measured by determining the dose of substance which provoked the death of 50% of the animals treated.
(§3) A gummy suspension of the substance under study was administered by oral route to groups of at least ten mice and the following results were observed: […]

mice [2] = experiment: Acute toxicity (LD50 / LDO), oral route, mice; type: in vivo
Procedure: as §1, §2, §3

[3] = water; for Extractibility compared with 2-phenyl-indole: in words
Procedure: This study was carried out in accordance with the requirements of the Food and Drug Administration (U.S.A.).
The extractions were performed in semi-rigid bottles, prepared with the resin of which the composition is given below, and with the following solvents: water, ethanol-water 50/50, an aqueous solution of acetic acid (3%) and finally heptane.
The ratio of the volume of solvent to the surface of plastic material exposed to extraction was about 1 to 100ml of solvent, taking into account the geometric characteristics of the bottles.
Heating A thermostated oven for the non-inflammable
solvents (water and acetic acid).
A thermostated water-bath for the inflammable
solvents (alcohol and heptane).
The quantity of stabilizer extracted was determined by colorimetric assay using p-dimethylaminobenzaldehyde, in accordance with the method described in Analytical Chemistry 36,425-26 (1964).
Results are expressed in μg of stabilizer extracted per litre of extraction solvent or, which is the same per 1000cm^2 of surface extracted.

[4] = Static thermostability of stabilized polyvinyl chloride resin, GARDNER Scale comparator, 185° C.; settings: 185° C. and 210° C. trials, in words
Procedure: The stabilizing power of the substances of the invention was studied by determining the static thermostability of the following resin: […]
Polyvinyl chloride resin
Calcium-12-hydroxy-stearate
Stabilizer from 0.1 to 1
SL 2016 represents a solution of zinc-2-ethyl-hexanoate in a mixture of aromatic hydrocarbons boiling between 158° and 184° C.
The different ingredients were mixed and calendered in a mixer of which the cylinders were heated to 160° C.
The rigid sheets so obtained were then heated in a oven to a temperature of 185° or 210° C., until incipient carbonization.
A oven with a rotating drum, ventilated and equipped with a thermostat was used for this operation.
In the trials described hereunder the behaviour of the sheets containing one of the stabilizers to be tested was compared to that of sheets of the same formula but containing 2-phenyl-indole as stabilizer.
Comparison can be made by one of two methods, namely:
(1) The coloration of the sheets, of which samples were removed from the oven at fixed intervals, was compared to a standard scale of coloration, known as the GARDNER Scale, and expressed in terms of the reference figures of the GARDNER Scale.
Comparisons were made with a GARDNER Scale comparator which contains 18 filters of colored glass and which offers the possibility of observing simultaneously by transparency and in a limited field of view both the sheet and the reference filters.
It may happen that the color of the sheets is far removed from that of the GARDNER Scale, in which case comparison is difficult, if not impossible.
The following results were obtained at a temperature of 185° C., using the method described above: […]

[5] = known stabilizer, in words; cited from earlier work
mice [6] = settings: known stabilizer, in words; cited from earlier work

## CCCCCCCCCCCCOc1ccc(-c2cc3ccc(C)cc3[nH]2)cc1 [Stabilizer 12]
[1]
  LD50: > 3000 mg/kg
Mice [2]; LD50 table
  Toxic symptoms: none

## Oc1ccc2cc(-c3ccccc3)[nH]c2c1 [Stabilizer 2, 2-phenyl-6-hydroxy-indole]
[3]
  Extractibility, times less than 2-phenyl-indole: at least 10 times
  Extractibility compared with 2-phenyl-indole: markedly superior to 2-phenyl-indole
[4]
  Stabilizing power compared with 2-phenyl-indole: superior to 2-phenyl-indole

## COc1cc(-c2cc3ccc(C)cc3[nH]2)ccc1O [Stabilizer 13, 2(3'-methoxy-4'-hydroxy-phenyl)6-methyl-indole]
[4]
  Stabilizing power compared with 2-phenyl-indole: superior to 2-phenyl-indole

## COc1cc(-c2cc3cc(C)ccc3[nH]2)ccc1O [Stabilizer 15, 2(3'-methoxy-4'-hydroxy-phenyl)-5-methyl-indole]
[4]
  Stabilizing power compared with 2-phenyl-indole: superior to 2-phenyl-indole

## CCCCCCCCCCCCOc1ccc(-c2cc3cccc(C)c3[nH]2)cc1C [Stabilizer 14, 2-(3'-methyl-4'-dodecyloxy-phenyl)-7-methyl-indole]
[3]; aqueous ethanol and heptane
  Extractibility compared with 2-phenyl-indole: markedly less extractible than 2-phenyl-indole

## COc1cc(-c2cc3cccc(C)c3[nH]2)ccc1O [Stabilizer 8, 2-(3'-methoxy-4'-hydroxy-phenyl)-7-methyl-indole]
[4]
  Stabilizing power compared with 2-phenyl-indole: superior to 2-phenyl-indole

## COc1ccc(-c2cc3cccc(C)c3[nH]2)cc1 [Stabilizer 5, 2-(4'-methoxy-phenyl)-7-methyl-indole]
[4]
  Stabilizing power compared with 2-phenyl-indole: superior to 2-phenyl-indole

## COc1ccc(-c2cc3ccc(C)cc3[nH]2)cc1 [Stabilizer 6, 2-(4'-methoxy-phenyl)-6-methyl-indole]
[4]
  Stabilizing power compared with 2-phenyl-indole: superior to 2-phenyl-indole
[1]
  LD50: > 3000 mg/kg
Mice [2]; LD50 table
  Toxic symptoms: none

## CCCCCCCCCCCCOc1ccc2[nH]c(-c3ccccc3)cc2c1 [Stabilizer 3, 2-phenyl-5-dodecyloxy-indole]
[3]; aqueous ethanol and heptane
  Extractibility compared with 2-phenyl-indole: markedly less extractible than 2-phenyl-indole
[4]
  Stabilizing power compared with 2-phenyl-indole: superior to 2-phenyl-indole
[1]
  LD50: > 5000 mg/kg
Mice [2]; LD50 table
  Toxic symptoms: none

## COc1ccc2cc(-c3ccccc3)[nH]c2c1 [Stabilizer 1, 2-phenyl-6-methoxy-indole]
[4]
  Stabilizing power compared with 2-phenyl-indole: superior to 2-phenyl-indole

## CCCCCCCCCCCCOc1ccc(-c2cc3ccc(C)cc3[nH]2)cc1 [Stabilizer 12, 2-(4'-dodecyloxy-phenyl)-6-methyl-indole]
[3]; aqueous ethanol and heptane
  Extractibility compared with 2-phenyl-indole: markedly less extractible than 2-phenyl-indole
[4]
  Stabilizing power compared with 2-phenyl-indole: superior to 2-phenyl-indole

## Oc1ccc2[nH]c(-c3ccccc3)cc2c1 [Stabilizer 19, 2-phenyl-5-hydroxy-indole]
[4]
  Stabilizing power compared with 2-phenyl-indole: superior to 2-phenyl-indole

## Oc1ccc2[nH]c(-c3ccccc3)cc2c1 [Stabilizer 19]
Mice [2]
  LDO (maximal dose which does not provoke any death): > 500 mg/kg
Mice [2]; LDO table
  Toxic symptoms: none

## c1ccc(-c2cc3ccccc3[nH]2)cc1 [2-phenyl-indole]
[5]
  Stabilizing power: good stabilizing power
Mice [6]
  Toxicity: low toxicity

## COc1ccc(-c2cc3cc(C)ccc3[nH]2)cc1 [Stabilizer 4, 2-(4'-methoxy-phenyl)-5-methyl-indole]
[4]
  Stabilizing power compared with 2-phenyl-indole: superior to 2-phenyl-indole
Mice [2]
  LDO (maximal dose which does not provoke any death): > 500 mg/kg
Mice [2]; LDO table
  Toxic symptoms: none
